Columns and labels:
Caco-2 permeation assay = type: in vitro ADME; conditions: human, read-out: Kp (permeability)
[1] = Phase 1 single ascending dose (SAD, Part A) safety and tolerability in healthy subjects; type: in vivo, human; conditions: for Most frequent TEAEs: Apthous ulcer / Most frequent TEAEs: Back pain / Most frequent TEAEs: Diarrhea / Most frequent TEAEs: Headache / Most frequent TEAEs: Pain in extremity / Subjects with TEAEs: Any TEAE / Subjects with TEAEs: Moderate or severe TEAE / Subjects with TEAEs: Seriou TEAE / Subjects with TEAEs: TEAE leading to discontinuation / Total number of TEAEs: SAD, n = 6
Description: This clinical study was the first in human study of a compound of formula (I). The purpose of this study was to assess the safety, tolerability and pharmacokinetics (PK) of the compound of formula (I) through single ascending dose administration (Part A) and multiple dose administrations (Part B) in healthy subjects.
The number and severity of treatment emergent adverse events (TEAE5) following single (Part A) or multiple (Parts B) oral doses of the compound of formula (I) and matching placebo, and changes in safety laboratory assessments, vital signs, and ECGs.
32 healthy, adult male and female subjects were enrolled in Part A. Four cohorts (A1 to A4) of 8 healthy subjects (6 active and 2 placebo) were evaluated.
In each cohort, healthy subjects meeting eligibility criteria were sequentially randomized in a 3:1 ratio to receive either the compound of formula (I) or matching placebo. Study drug was administered orally as a single dose on the morning of Day 1 following an overnight fast of at least 9.5 hours. Subjects were dosed in an upright (i.e., seated or standing) position and remained upright for 5 minutes following dosing prior to performing study procedures which require a posture change. Subjects were to remain fasted, except water, until after the 4-hour post-dose assessments were completed and the 4-hour post dose PK sample was collected. PK sampling for the compound of formula (I) in plasma and urine were taken Day 1 pre-dose and for 72 hours post-dose.
Safety was determined by evaluating physical examinations, vital signs, safety 12-lead electrocardiograms (ECGs) monitoring, clinical laboratory tests, and adverse events (AEs). For procedures scheduled to be performed at common times, collection of PK samples was collected as close as possible to the designated time. The cardiodynamic recordings via ECG extractions from the Holter monitor were conducted as close as possible prior to the corresponding PK sampling. Vital signs, followed by safety ECGs, were be taken before the PK sampling (or before the cardiodynamic sampling if scheduled at the same time), unless PK samples were late as a result in which case vital signs were taken following the PK sampling.
Safety analyses were performed using the Safety analysis set. Safety variables include vital signs, adverse events, clinical laboratory results (hematology, chemistry, coagulation, and urinalysis), and ECG parameters, such as Friderica's corrected QT interval (QTcF), PR interval, QT interval, QRS interval, and heart rate, from standard safety digital ECGs. Vital signs were summarized in terms of observed values and changes from baseline.

splenic NK cell counts = assay: Immunosuppression model in mice (splenic NK cell counts); type: in vivo; conditions: same or higher doses than required for efficacy in the oxazolone model
Description: Oxazolone-induced colitis is an experimental model that has a histological resemblance to human ulcerative colitis.

JAK3 = molecular target: T1, JAK3 (Homo sapiens, UniProt P52333); assay: Protein-adjusted JAK3 IC50 (reference value, data on file); type: cell-based
T1 sequence (P52333 1-1124): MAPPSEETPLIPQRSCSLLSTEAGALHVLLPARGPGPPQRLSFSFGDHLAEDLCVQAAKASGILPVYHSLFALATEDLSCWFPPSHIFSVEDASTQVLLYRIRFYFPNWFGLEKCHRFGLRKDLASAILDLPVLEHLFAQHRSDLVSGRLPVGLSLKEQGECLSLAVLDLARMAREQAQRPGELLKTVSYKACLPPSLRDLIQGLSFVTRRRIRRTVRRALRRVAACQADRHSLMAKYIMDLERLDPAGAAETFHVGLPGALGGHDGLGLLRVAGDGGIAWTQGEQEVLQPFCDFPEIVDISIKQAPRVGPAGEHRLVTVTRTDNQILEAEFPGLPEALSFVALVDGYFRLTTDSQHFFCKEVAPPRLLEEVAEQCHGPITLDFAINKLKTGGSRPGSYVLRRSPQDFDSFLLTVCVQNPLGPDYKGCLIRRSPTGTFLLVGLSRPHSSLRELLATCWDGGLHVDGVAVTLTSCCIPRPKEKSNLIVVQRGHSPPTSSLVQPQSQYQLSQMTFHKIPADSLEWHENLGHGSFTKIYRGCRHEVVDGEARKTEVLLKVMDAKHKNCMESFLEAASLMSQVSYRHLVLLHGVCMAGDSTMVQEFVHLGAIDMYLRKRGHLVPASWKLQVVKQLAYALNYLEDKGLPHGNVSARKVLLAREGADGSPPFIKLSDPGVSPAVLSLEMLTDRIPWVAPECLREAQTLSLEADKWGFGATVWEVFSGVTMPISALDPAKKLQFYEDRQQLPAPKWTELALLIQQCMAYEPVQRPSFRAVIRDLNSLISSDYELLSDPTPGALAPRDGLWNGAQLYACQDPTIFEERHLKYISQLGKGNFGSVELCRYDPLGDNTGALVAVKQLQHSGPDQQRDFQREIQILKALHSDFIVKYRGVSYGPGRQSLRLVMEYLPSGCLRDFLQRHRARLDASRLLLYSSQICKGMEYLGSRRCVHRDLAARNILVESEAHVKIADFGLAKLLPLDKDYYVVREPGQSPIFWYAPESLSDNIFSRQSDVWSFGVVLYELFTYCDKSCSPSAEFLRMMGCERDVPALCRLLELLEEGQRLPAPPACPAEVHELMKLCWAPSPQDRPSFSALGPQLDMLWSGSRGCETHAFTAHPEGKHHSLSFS
Description: In FIG. 11B, gray box indicates day 1 of MAD portion. Symbols and error bars represent the arithmetic mean plus SD, and reference IC50 values shown are from data on file. BID, twice daily; HuPBMC, human peripheral blood mononuclear cell; IC50, concentration producing 50% of maximal inhibition.

With `CN(C)C/C=C/C(=O)N1CC(COc2cc(-c3ccc(O)cc3)cc3[nH]ncc23)C1` [compound of formula (I)] the Papp (Caco-2 permeation assay) was < 5 ×10⁻⁶ cm/s, the “serious AEs” value ([1]; SAD cohorts) was “No serious AEs” and the “severity of reported treatment-emergent AEs” value ([1]; SAD cohorts) was “mild”. The “AEs considered related to study drug (diarrhea, abdominal discomfort, and vomiting)” value ([1]; SAD cohorts, 2000 mg) was “Three”, the “changes from predose baseline in laboratory assessments (lipid, coagulation, hematology), vital signs or ECGs” value ([1]; SAD cohorts, any time point postdose) was “No clinically significant changes” and the “Most frequent TEAEs: Apthous ulcer” value ([1]; single oral dose 100 mg) was 1 (17). For the same compound, the “Most frequent TEAEs: Back pain” value ([1]; single oral dose 100 mg) was 1 (17), the “Most frequent TEAEs: Diarrhea” value ([1]; single oral dose 100 mg) was 0 and the “Most frequent TEAEs: Headache” value ([1]; single oral dose 100 mg) was 1 (17). For the same compound, the “Most frequent TEAEs: Pain in extremity” value ([1]; single oral dose 100 mg) was 3 (50), the “Subjects with TEAEs: Any TEAE” value ([1]; single oral dose 100 mg) was 4 (67) and the “Subjects with TEAEs: Moderate or severe TEAE” value ([1]; single oral dose 100 mg) was 0. For the same compound, the “Subjects with TEAEs: Seriou TEAE” value ([1]; single oral dose 100 mg) was 0, the “Subjects with TEAEs: TEAE leading to discontinuation” value (shortened to “Subjects with TEAEs: TEAE leading”) ([1]; single oral dose 100 mg) was 0 and the “Total number of TEAEs” value ([1]; single oral dose 100 mg) was 8. The “Most frequent TEAEs: Apthous ulcer” value ([1]; single oral dose 300 mg) was 0, the “Most frequent TEAEs: Back pain” value ([1]; single oral dose 300 mg) was 0 and the “Most frequent TEAEs: Diarrhea” value ([1]; single oral dose 300 mg) was 0. The “Most frequent TEAEs: Headache” value ([1]; single oral dose 300 mg) was 0, the “Most frequent TEAEs: Pain in extremity” value ([1]; single oral dose 300 mg) was 1 (17) and the “Subjects with TEAEs: Any TEAE” value ([1]; single oral dose 300 mg) was 2 (33). The “Subjects with TEAEs: Moderate or severe TEAE” value ([1]; single oral dose 300 mg) was 0, the “Subjects with TEAEs: Seriou TEAE” value ([1]; single oral dose 300 mg) was 0 and the “Subjects with TEAEs: TEAE leading” value ([1]; single oral dose 300 mg) was 0. For the same compound, the “Total number of TEAEs” value ([1]; single oral dose 300 mg) was 2, the “Most frequent TEAEs: Apthous ulcer” value ([1]; single oral dose 1000 mg) was 0 and the “Most frequent TEAEs: Back pain” value ([1]; single oral dose 1000 mg) was 1 (17). For the same compound, the “Most frequent TEAEs: Diarrhea” value ([1]; single oral dose 1000 mg) was 1 (17), the “Most frequent TEAEs: Headache” value ([1]; single oral dose 1000 mg) was 0 and the “Most frequent TEAEs: Pain in extremity” value ([1]; single oral dose 1000 mg) was 0. For the same compound, the “Subjects with TEAEs: Any TEAE” value ([1]; single oral dose 1000 mg) was 2 (33), the “Subjects with TEAEs: Moderate or severe TEAE” value ([1]; single oral dose 1000 mg) was 0 and the “Subjects with TEAEs: Seriou TEAE” value ([1]; single oral dose 1000 mg) was 0. The “Subjects with TEAEs: TEAE leading” value ([1]; single oral dose 1000 mg) was 0, the “Total number of TEAEs” value ([1]; single oral dose 1000 mg) was 6 and the “Most frequent TEAEs: Apthous ulcer” value ([1]; single oral dose 2000 mg) was 1 (17). The “Most frequent TEAEs: Back pain” value ([1]; single oral dose 2000 mg) was 0, the “Most frequent TEAEs: Diarrhea” value ([1]; single oral dose 2000 mg) was 1 (17) and the “Most frequent TEAEs: Headache” value ([1]; single oral dose 2000 mg) was 1 (17). For the same compound, the “Most frequent TEAEs: Pain in extremity” value ([1]; single oral dose 2000 mg) was 0, the “Subjects with TEAEs: Any TEAE” value ([1]; single oral dose 2000 mg) was 3 (50) and the “Subjects with TEAEs: Moderate or severe TEAE” value ([1]; single oral dose 2000 mg) was 0. The “Subjects with TEAEs: Seriou TEAE” value ([1]; single oral dose 2000 mg) was 0, the “Subjects with TEAEs: TEAE leading” value ([1]; single oral dose 2000 mg) was 0 and the “Total number of TEAEs” value ([1]; single oral dose 2000 mg) was 6. For the same compound, the tolerability ([1]; single dose up to 2000 mg) was “generally well-tolerated”, the “splenic NK cell counts” value (splenic NK cell counts) was “unaffected” and the IC50 (JAK3) was 369 nM.

Reference: patent US11471442B2, “Administration of gut-selective JAK3 inhibitor” (THERAVANCE BIOPHARMA R&D IP, LLC, priority 2020, dated 2022)
